Data published in ChEMBL document CHEMBL1151232, “First synthesis and determination of the absolute configuration of sulphostin, a novel inhibitor of dipeptidyl peptidase IV” (J Nat Prod, 2004).

Columns and labels:
[1] = biological target: Dipeptidyl peptidase 4 (Rattus norvegicus) (UniProt P14740); settings: 64 ng/ml
Description: Inhibition of rat kidney DPP4 at 64 ng/ml

[2] = biological target: Dipeptidyl peptidase 4 (Rattus norvegicus) (UniProt P14740); settings: 0.5 ng/ml
Description: Inhibition of rat kidney DPP4 at 0.5 ng/ml

[3] = biological target: Dipeptidyl peptidase 4 (Rattus norvegicus) (UniProt P14740); settings: 16 ng/ml
Description: Inhibition of rat kidney DPP4 at 16 ng/ml

[4] = biological target: Dipeptidyl peptidase 4 (Rattus norvegicus) (UniProt P14740); settings: 4 ng/ml
Description: Inhibition of rat kidney DPP4 at 4 ng/ml

[5] = biological target: Dipeptidyl peptidase 4 (Rattus norvegicus) (UniProt P14740); settings: 8 ng/ml
Description: Inhibition of rat kidney DPP4 at 8 ng/ml

[6] = biological target: Dipeptidyl peptidase 4 (Rattus norvegicus) (UniProt P14740); settings: 1 ng/ml
Description: Inhibition of rat kidney DPP4 at 1 ng/ml

[7] = biological target: Dipeptidyl peptidase 4 (Rattus norvegicus) (UniProt P14740); settings: 32 ng/ml
Description: Inhibition of rat kidney DPP4 at 32 ng/ml

[8] = biological target: Dipeptidyl peptidase 4 (Rattus norvegicus) (UniProt P14740); settings: 2 ng/ml
Description: Inhibition of rat kidney DPP4 at 2 ng/ml

Dipeptidyl peptidase 4 (Rattus norvegicus), sequence (P14740 whole entry, looked up): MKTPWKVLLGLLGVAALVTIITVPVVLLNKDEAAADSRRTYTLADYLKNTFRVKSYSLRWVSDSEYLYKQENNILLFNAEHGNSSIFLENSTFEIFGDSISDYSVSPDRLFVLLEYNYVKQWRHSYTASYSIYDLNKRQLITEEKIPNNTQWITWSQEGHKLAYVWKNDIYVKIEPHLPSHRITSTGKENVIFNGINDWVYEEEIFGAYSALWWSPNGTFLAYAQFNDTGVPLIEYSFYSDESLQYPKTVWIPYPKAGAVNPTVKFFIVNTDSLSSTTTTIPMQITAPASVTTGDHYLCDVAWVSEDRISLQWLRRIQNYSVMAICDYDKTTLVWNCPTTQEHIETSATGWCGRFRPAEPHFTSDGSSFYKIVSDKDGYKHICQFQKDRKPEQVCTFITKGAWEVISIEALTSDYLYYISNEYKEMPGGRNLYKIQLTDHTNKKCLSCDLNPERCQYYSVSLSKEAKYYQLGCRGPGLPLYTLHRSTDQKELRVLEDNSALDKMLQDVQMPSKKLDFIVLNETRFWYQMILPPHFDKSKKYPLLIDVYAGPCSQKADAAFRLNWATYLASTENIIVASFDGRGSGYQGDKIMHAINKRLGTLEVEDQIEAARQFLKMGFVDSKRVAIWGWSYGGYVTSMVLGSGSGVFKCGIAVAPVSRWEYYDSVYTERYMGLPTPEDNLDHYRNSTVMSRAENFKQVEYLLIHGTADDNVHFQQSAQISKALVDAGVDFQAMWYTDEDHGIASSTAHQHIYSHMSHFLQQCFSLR

## N[C@H]1CCCN([P@@](N)(=O)NS(=O)(=O)O)C1=O
[1]
  inhibition: 84.5%
[2]
  inhibition: 15.9%
[3]
  inhibition: 66.9%
[4]
  inhibition: 41.9%
[5]
  inhibition: 54.4%
[6]
  inhibition: 20.2%
[7]
  inhibition: 77.4%
[8]
  inhibition: 30.6%
